In US5380834A, “Immuno-suppressive agent” (Ishihara Sangyo Kaisha Ltd., priority 1992, dated 1995):
Values after ≈ are worked out from the molar mass of the structure shown.

How the values were obtained:
[1] = system: murine mixed lymphocyte reaction (spleen cells of BALB/c and C57BL/6 mice); assay: Effects on the murine mixed lymphocyte reaction (3H-TdR uptake); format: cell-based; conditions: Mus musculus, BALB/c + C57BL/6 spleen cells, 48 hours, read-out: IC50 value, b (murine mixed lymphocyte reaction)
[2] = system: murine bone mallow cells; assay: Effects on the murine bone mallow cells (proliferation, 3H-TdR uptake); format: cell-based, BALB/c mouse; conditions: Mus musculus, bone marrow cells; 20% L929 culture supernatant, 48 hours, 3H-TdR uptake; Tables 12-15; read-out: IC50 value, c (murine bone mallow cells)
[3] = system: IgE antibody production from murine spleen B cells; assay: Effects on the IgE antibody production from murine spleen cells (LPS + IL4); format: cell-based, BALB/c mouse; conditions: Mus musculus, B-cell, 168 h; spleen B cells, LPS 10 μg/ml, IL4 100 U/ml, 7 days, enzyme-immunoassay; read-out: IC50 value, IgE antibody production
[4] = system: Carrageenan-induced acute inflammation in rats; assay: Carrageenan-induced paw edema model (anti-inflammatory activity); format: in vivo, SD male rat; conditions: 50 mg/Kg orally one hour before carrageenan, 3 hours, n=4; control 144 ± 8; P < 0.01 (No. 29), P < 0.05 (Nos. 1, 17)
Description: A test for an anti-inflammatory activity was conducted by means of carrageenan-induced paw edema model which is commonly used for evaluation of the effectiveness of a common anti-inflammatory agent (NSAID).
0.1 ml of a 1% λ-carrageenan solution was injected intradermally at the sole of the right paw of a SD male rat (six weeks old). Three hours later, the sole volumes of paws on both sides were measured, and the difference in the volume between the right paw and the left paw was taken as the degree of edema. The test compound was orally administered in an amount of 1 ml/100 g (body weight) one hour prior to the administration of carrageenan. To the control group, a physiological saline was administered in the same amount.

## O[C@H]1C=C[C@H]2CO[C@@H]1O2 [Compound 1, 1,6-anhydro-3,4-dideoxy-β-D-threo-hex-3-enopyranose]
[1]
  IC50: 11 mg/L
[2]
  IC50: 69 mg/L (≈ 539 µM)
[3]
  IC50: 32 mg/L
[4]
  Swelling of paw, Average ± SD: 100 ± 33 × 10^-2 cm^3

## O=C(O[C@H]1C=C[C@H]2CO[C@@H]1O2)c1ccco1 [Compound 17, 1,6-anhydro-3,4-dideoxy-2-O-(2-furancarbonyl)-β-D-threo-hex-3-enopyranose]
[1]
  IC50: 270 mg/L
[2]
  IC50: 510 mg/L (≈ 2300 µM)
[3]
  IC50: 3.2 mg/L
[4]
  Swelling of paw, Average ± SD: 95 ± 26 × 10^-2 cm^3

## C#C[C@]1(O)C=C[C@H]2CO[C@@H]1O2 [Compound 29]
[1]
  IC50: > 1000 mg/L
[2]
  IC50: > 1000 mg/L
[3]
  IC50: 320 mg/L
[4]
  Swelling of paw, Average ± SD: 97 ± 22 × 10^-2 cm^3
